Laboratory results taken from patent US20180318383A1, “PEPTIDE HAVING NEURONAL LOSS PREVENTION AND REGENERATION EFFECTS, AND COMPOSITION CONTAINING SAME” (GEMVAX & KAEL CO., LTD., priority 2015, published 2018).
Where no end group is shown, it is not given here.

Experiments:
[1] = tested on: PI3K pathway; test: NSC survival after PI3K inhibitor LY294002 pre-treatment; format: cell-based, rat; conditions: 10 μM LY294002 pre-treatment, then 20 μM Aβ25-35 and 10 μM PEP1 for 48 hours
Method: To identify the role of the PI3K/AKT signaling system in the PEP1 mechanism, NSCs were treated with a PI3K inhibitor LY294002 for 1 hour before treatment of 50 μM PEP1 and 20 μM Aβ25-30. NSCs were divided into four groups as follows: control group (Group 1), group treated with 20 μM Aβ25-35 for 48 hours (Group 2), group treated with 20 μM Aβ25-35, as well as 50 μM PEP1, for 48 hours (Group 3), and group treated with 10 μM LY294002 and 20 μM Aβ25-35, as well as 50 μM PEP1, for 48 hours (Group 4). To investigate a PEP1 effect on nerve protection via a PI3K pathway induced by Aβ25-35 toxicity, NSCs were divided into four groups: control group (Group 1), group treated with 20 μM Aβ25-35 for 48 hours (Group 2), group treated with 20 μM Aβ25-35 and 10 μM PEP1 for 48 hours (Group 3), and group treated with 10 μM LY294002 for […], and then treated with 20 μM Aβ25-35 10 μM PEP1 for 48 hours (Group 4).

[2] = tested on: NSCs; test: NSC proliferation (BrdU and CFU assays); format: cell-based, rat; conditions: NSCs, Aβ25-35 alone 0-40 μM, 48 hours; BrdU and CFU
Method: NSCs were treated with different concentrations of PEP1 and 20 μM Aβ25-30 for 48 hours. Afterward, NSCs were cultured in bromodeoxyuridine (BrdU)-labeled media for 5 hours and observed using a kit. Cell division was evaluated by measuring absorbance at 370 nm and reference absorbance at 492 nm. All results were normalized based on a cell-free well.
A CFU assay was carried out by the following method. Briefly, 0.25×10^5 NSCs were plated in a 6-well plate, and treated with 20 μM Aβ25-30 and then with PEP1 at 1, 10 or 50 μM for 48 hours. The cells were washed with DPBS, and then the medium was exchanged with a fresh cell culture medium. Fourteen days later, the cells were washed again with DPBS, and stained with 0.5% crystal violet dissolved in methanol for 30 minutes at room temperature. Following staining, the plate was washed with DPBS and then dried. The number of colonies was observed using a stereoscopic microscope, and among these colonies, those smaller than 2 mm or faintly stained were removed.

[3] = tested on: NSCs; test: Cell viability of NSCs (CCK-8, MTT, LDH); format: cell-based, rat; conditions: NSCs, Aβ25-35 alone 0, 2.5, 5, 10, 20, 40 μM, 48 hours; CCK-8, MTT, LDH
Method: NSCs were isolated from the brain of a rat embryo, cultured and developed. The NSC culture was performed in the same manner as to be described below. Briefly describing, a rat embryo was obtained on day 13 of the embryonic period, and the brain was quickly removed and placed in a petri dish containing cold phosphate-buffered physiological saline (Hank's balanced salt solution; HBSS).
Single cells were isolated from the cerebral cortex, the lateral ganglion eminence, and the embryonic midbrain. These cells were put into a dish pre-treated with L-ornithine and fibronectin, containing calcium and magnesium-free phosphate-buffered physiological saline (PBS) at a density of 20,000 cells/cm^2. In addition, the cells were cultured in an N2 medium (DMEM F/12, […] insulin, 100 mg/L transferrin, 30 nM selenite, […], 20 nM progesterone, 0.2 mM ascorbic acid, […], 8.6 mM D(+) glucose, and […]). The culture was maintained in humidified and 5% CO2 conditions for 4 to 6 days at 37° C.
NSCs were divided into 6 samples, and each sample was treated with […] Aβ25-30 oligomers for 48 hours to identify a suitable concentration. […] Briefly, Aβ25-30 was dissolved in hexafluoroisopropanol to reach a concentration of 1 mM. In addition, the prepared solution was dispensed using a sterilized ultramicrocentrifuge tube. […]
To identify the PEP1 effect in NSCs, PEP1 was treated at various concentrations of 0, 1, 10, 50, 100, and 200 μM for 48 hours. […] The plate was gently washed with PBS several times, and cell viability was measured using a cell counting kit-8 (CCK-8), MTT and lactate dehydrogenase (LDH).
CCK-8 was used as a method for counting living cells by bonding 2-[2-methoxy-4-nitrophenyl]-3-[4-nitrophenyl]-5-[2,4-disulfophenyl]-2H-tetrazolium, monosodium salt (WST-8) with 1-methoxyphenazinium methylsulfate (PMS). […] Cell viability was evaluated by measuring absorbance at 450 nm. […] Cell viability was evaluated by measuring absorbance at 490 nm and reference absorbance at 690 nm. […]

[4] = Cell-free ROS production (DHBA level by HPLC); conditions: 20 μM Aβ25-35 and PEP1 0, 1, 10, 50 μM
Method: To investigate how Aβ25-30 and PEP1 influenced ROS, a DHBA level was measured and observed by a cell-free method. This method was carried out by observing the DHBA level in a tube containing 20 μM Aβ25-30 and each concentration of PEP1 (0, 1, 10 or 50 μM) through HPLC.

Row | Molecule | survival ability of NSCs degraded, Group 4 compared to Group 3 [1] | proliferation [2] | cell survival ability [3] | ROS production under a cell-free condition [4]
1 | O=c1cc(N2CCOCC2)oc2c(-c3ccccc3)cccc12 [LY294002] | approximately 16% |  |  | 
2 | Aβ25-35: β-Amyloid 25-35 oligomers used to induce neurotoxicity in NSCs (GSNKGAIIGLM; also: used as oligomers; UniProt P05067 696-706, looked up, fragment) [reference compound] |  | significantly reduced in a concentration-dependent method | significantly reduced in a concentration-dependent method | did not exhibit a significant influence
